According to US20170340544A1, “COSMETIC COMPOSITION FOR IMPROVING HEALTH OF SCALP AND METHOD OF PREPARING THE SAME” (OLIPASS Cosmeceuticals Company, priority 2016, published 2017):
Ends that are not written are not given here.

Assays:
HaCaT cell line = assay: Cytotoxicity (MTT) of oligopeptide in HaCaT human keratinocytes; format: cell-based; details: 50 ppm and 100 ppm oligopeptide
Protocol: (§1) In order to evaluate the stability of the oligopeptide prepared in Preparation Example 1 when applied to humans, irritation of the skin and scalp due to cytotoxicity was measured using a HaCaT cell line as human keratinocytes.
(§2) The HaCaT cell line used therefor was incubated at 37° C. in a […] incubator. When the extent of incubation arrived at 85 to 90% of the area of a culture vessel, the cells were detached with trypsin, counted, and subjected to subculture at 5×10^3 cells/cm^2.
(§3) For cell culture, a Dulbecco's Modified Eagle Medium (DMEM, GIBCO, Cat. No. 11995-065, USA), containing 10% fetal bovine serum (FBS, GIBCO, Cat. No., 26140-079, USA), 100 U/ml penicillin, and 100 μg/ml streptomycin, was used. For subculture, a 75 T-flask (NUNC, Cat. No. 156499, Denmark) was used, and the cytotoxicity test was carried out using a 24-well plate (NUNC, Cat. No. 142475, Denmark).
(§4) The human keratinocytes were counted at 5×10^3 cells/well each and then aliquoted into the 24-well plate using a hemocytometer. These cells were incubated in DMEM containing 10% FBS for 48 hr. When the extent of incubation arrived at 40 to 50% of the surface area of the culture vessel, the medium was replaced with FBS-free DMEM containing each of 50 ppm oligopeptide and 100 ppm oligopeptide, and culture was further conducted for 24 hr. Thereafter, 50 μl of a 3-(4,5-dimethylthiazol-2-yl)-2,5-diphenyl tetrazolium bromide (MTT, Sigma M5655, USA) solution (2.5 mg/ml) was added and culture was further performed for 3 hr. Then, the cell culture broth was discarded, 200 μl of dimethyl sulfoxide (DMSO, Sigma D2650, USA) was added to each well and shaken, 100 μl thereof was transferred into a 96-well plate, and the absorbance thereof was measured at 570 nm using an Enzyme-Linked Immunosorbent Assay (ELISA).
(§5) The cytotoxicity was represented as a percentage based on the absorbance intensity of a control using pure water.

[1] = as above; format: cell-based; details: 24 hr, MTT absorbance 570 nm as percentage of pure water control
Protocol: as §1, §2, §3, §4, §5

Substance: GQQKRSDRLNLSR-OH [Oligopeptide, Gly-Gln-Gln-Lys-Arg-Ser-Asp-Arg-Leu-Asn-Leu-Ser-Arg]
- cytotoxicity compared to the control (HaCaT cell line): no cytotoxicity
- viability ([1]; 50 ppm oligopeptide): 93%
- viability ([1]; 100 ppm oligopeptide): 81%
